According to US20180099937A1, “NOVEL ARYL-CYANOGUANIDINE COMPOUNDS” (Bayer Pharma Aktiengesellschaft, priority 2015, published 2018):
pIC50: −log10 of the molar value.

The molecules below were run against SMYD2 (Homo sapiens, UniProt Q9NRG4) (assay: Scintillation Proximity Assay (SPA) for detection of SMYD2 enzymatic inhibition). Settings: SMYD2 full length enzyme, p53 Peptide substrate 1.0 μM, 3H-SAM 60 nM; read-out: IC50 [mol/l] (SPA Assay).
Assay type: biochemical
Parameters: The SMYD2 full length enzyme was produced in-house by expression (with an N-terminal 6× His tag) in E. coli; 6xHis (N); made in house; host or cells: E. coli
Description: 1.1 Scintillation Proximity Assay (SPA) for Detection of SMYD2 Enzymatic Inhibition
SMYD2 inhibitory activities of the compounds described in the present invention were quantified using a scintillation proximity assay (SPA) which measures methylation by the enzyme of the synthetic, biotinylated peptide Btn-Ahx-[…]—Amid×TFA (Biosyntan) derived from p53 and referred to from here on as “p53 Peptide”. The SMYD2 full length enzyme was produced in-house by expression (with an N-terminal 6× His tag) in E. coli and purification by affinity chromatography on a Ni-NTA Sepharose column followed by a size exclusion chromatography step on a Superdex 200 16/60 column (GE Healthcare).
In a typical assay 11 different concentrations of each compound (0.1 nM, 0.33 nM, 1.1 nM, 3.8 nM, 13 nM, 44 nM, 0.15 μM, 0.51 μM, 1.7 μM, 5.9 μM and 20 μM) were tested in duplicate within the same microtiter plate. To this end, 100-fold concentrated compound solutions (in DMSO) were previously prepared by serial dilution (1:3.4) of 2 mM stocks in a clear low volume 384-well source microliter plate (Greiner Bio-One), from which 50 nl of compound solutions were transferred into a white low volume test microtiter plate from the same supplier. Subsequently, 2.5 μl SMYD2 in aqueous assay buffer [50 mM Tris/HCl pH 9.0 (AppliChem), 1 mM dithiothreitol (DTT, Sigma), 0.01% (w/v) bovine serum albumine (BSA, Sigma), 0.0022% (v/v) Pluronic (Sigma)] were added to the compounds in the test plate to a final enzyme concentration of —typically—3 nM (this parameter was adjusted depending on the activity of the enzyme lot in order to be within the linear dynamic range of the assay). The samples were then incubated for 15 min at 22° C. to allow pre-equilibration of the putative enzyme-inhibitor complexes before the start of the methylation reaction, which was initiated by the addition of 2.5 μl 2-fold concentrated solution (in assay buffer) of titriated S-Adenosyl-L-Methionine (3H-SAM, Perkin Elmer, final concentration: 60 nM) and p53 Peptide substrate (final concentration: 1.0 μM). The resulting mixture (5 μl final volume) was shortly centrifuged (2 min., 1500 rpm) and incubated at 22° C. during 30 min. Thereupon the reaction was stopped by adding 3 μl of Streptavidin PS SPA imaging beads (Perkin Elmer, final concentration of 3.12 μg/μl) and “cold” SAM (AK Scientific, 25 μM final concentration) for non-specific binding reduction. Plates containing the stopped reaction were sealed with transparent adhesive foil (Perkin Elmer), centrifuged (2 min., 1500 rpm), and further incubated for —at least—1 h at RT (or overnight at 4° C.) in order to allow the SPA signals to develop. Subsequently, the amount of product was evaluated by measuring the energy transfer from the β-particles emitted by the 3H-labeled substrate to the Europium scintillator co-polymerized in the polystyrene matrix of the PS imaging beads, using the standard settings for this purpose of a Viewlux (Perkin-Elmer) CCD plate imaging device (emission filter 613/55 (IFP). The resulting scintillation counts were taken as indicator for the amount of methylated peptide per well. The data were normalised using two sets of control wells (typically 16 each) for high−(=enzyme reaction with DMSO instead of test compound=0% =Minimum inhibition) and low−(=all assay components without enzyme=100% =Maximum inhibition) SMYD2 activity. IC50 values were calculated by fitting the normalized inhibition data to a 4-parameter logistic equation using the “Screener” analysis software from Genedata.

Sequence of SMYD2 (Q9NRG4 whole entry): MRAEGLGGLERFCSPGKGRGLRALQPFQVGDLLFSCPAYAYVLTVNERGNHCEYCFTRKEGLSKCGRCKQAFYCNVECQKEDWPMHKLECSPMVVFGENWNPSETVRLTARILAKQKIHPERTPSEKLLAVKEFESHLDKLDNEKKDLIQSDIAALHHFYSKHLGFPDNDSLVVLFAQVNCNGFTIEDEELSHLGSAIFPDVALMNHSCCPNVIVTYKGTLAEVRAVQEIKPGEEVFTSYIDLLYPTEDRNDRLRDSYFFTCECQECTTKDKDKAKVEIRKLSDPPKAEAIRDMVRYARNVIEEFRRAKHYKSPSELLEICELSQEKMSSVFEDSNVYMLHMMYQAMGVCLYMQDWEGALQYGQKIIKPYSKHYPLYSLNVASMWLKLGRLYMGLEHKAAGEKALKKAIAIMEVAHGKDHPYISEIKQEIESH

SMILES | pIC50
CCN(C(=O)[C@H]1C[C@@H](F)CN1)C1CN(/C(=N\C#N)Nc2cccc(OC(F)F)c2)N=C1c1ccc(Cl)c(Cl)c1 (mixture of isomers) [Example 4, (4R)-N-[1-{N′-Cyano-N-[3-(difluoromethoxy)phenyl]carbamimidoyl}-3-(3,4-dichlorophenyl)-4,5-dihydro-1H-pyrazol-4-yl]-N-ethyl-4-fluoro-D-prolinamide] | 7.07
CC1(C)CN[C@@H](C(=O)NC2CN(/C(=N\C#N)Nc3cccc(OC(F)F)c3)N=C2c2ccc(Cl)c(Cl)c2)C1 (mixture of isomers) [Example 7, N-[1-{N′-Cyano-N-[3-(difluoromethoxy)phenyl]carbamimidoyl}-3-(3,4-dichlorophenyl)-4,5-dihydro-1H-pyrazol-1-yl]-4,4-dimethyl-D-prolinamide] | 6.31
CCN(C(=O)[C@H]1C[C@@H](O)CN1)C1CN(/C(=N\C#N)Nc2cccc(OC(F)F)c2F)N=C1c1ccc(Cl)c(Cl)c1 (mixture of isomers) [Example 14, (4R)-N-[1-{N′-Cyano-N-[3-(difluoromethoxy)-2-fluorophenyl]carbamimidoyl}-3-(3,4-dichlorophenyl)-4,5-dihydro-1H-pyrazol-4-yl]-N-ethyl-4-hydroxy-D-prolinamide] | 7.10
CCN(C(=O)[C@H]1CCCN1)C1CN(/C(=N\C#N)Nc2ccc(F)c(OC(F)F)c2)N=C1c1ccc(Cl)c(Cl)c1 (mixture of isomers) [Example 15, N-[1-{N′-Cyano-N-[3-(difluoromethoxy)-4-fluorophenyl]carbamimidoyl}-3-(3,4-dichlorophenyl)-4,5-dihydro-1H-pyrazol-4-yl]-N-ethyl-D-prolinamide] | 7.61
CCN(C(=O)[C@H]1C[C@@H](O)CN1)C1CN(/C(=N\C#N)Nc2ccc(F)c(OC(F)F)c2)N=C1c1ccc(Cl)c(Cl)c1 (mixture of isomers) [Example 16, (4R)-N-[1-{N′-Cyano-N-[3-(difluoromethoxy)-4-fluorophenyl]carbamimidoyl}-3-(3,4-dichlorophenyl)-4,5-dihydro-1H-pyrazol-4-yl]-N-ethyl-4-hydroxy-D-prolinamide] | 6.95
CCN(C(=O)[C@H]1CCCN1)C1CN(/C(=N\C#N)Nc2cccc(OC(F)(F)F)c2)N=C1c1ccc(Cl)c(Cl)c1 (mixture of isomers) [Example 17, N-[1-{N′-Cyano-N-[3-(trifluoromethoxy)phenyl]carbamimidoyl}-3-(3,4-dichlorophenyl)-4,5-dihydro-1H-pyrazol-4-yl]-N-ethyl-D-prolinamide] | 6.94
CCN(C(=O)[C@H]1CCCN1)C1CN(/C(=N\C#N)Nc2cc(OC(F)(F)F)ccc2OC)N=C1c1ccc(Cl)c(Cl)c1 (mixture of isomers) [Example 19, N-[1-{N′-Cyano-N-[2-methoxy-5-(trifluoromethoxy)phenyl]carbamimidayl}-3-(3,4-dichlorophenyl)-4,5-dihydro-1H-pyrazol-4-yl]-N-ethyl-D-prolinamide] | 7.76
CCN(C(=O)[C@H]1C[C@@H](O)CN1)C1CN(/C(=N\C#N)Nc2cc(OC(F)(F)F)ccc2OC)N=C1c1ccc(Cl)c(Cl)c1 (mixture of isomers) [Example 20, (4R)-N-[1-{N′-Cyano-N-[2-methoxy-5-(trifluoromethoxy)phenyl]carbamimidayl}-3-(3,4-dichlorophenyl)-4,5-dihydro-1H-pyrazol-4-yl]-N-ethyl-1-hydroxy-D-prolinamide] | 7.65
CCN(C(=O)[C@H]1CCCN1)C1CN(/C(=N\C#N)Nc2cccc(OC(F)(F)F)c2F)N=C1c1ccc(Cl)c(Cl)c1 (mixture of isomers) [Example 21, N-[1-{N′-Cyano-N-[2-fluoro-3-(trifluoromethoxy)phenyl]carbamimidoyl}-3-(3,4-dichlorophenyl)-4,5-dihydro-1H-pyrazol-4-yl]-N-ethyl-D-prolinamide] | 7.30
CCN(C(=O)[C@H]1CCCN1)C1CN(/C(=N\C#N)Nc2ccc(F)c(OC(F)(F)F)c2)N=C1c1ccc(Cl)c(Cl)c1 (mixture of isomers) [Example 22, N-[1-{N′-Cyano-N-[4-fluoro-3-(trifluoromethoxy)phenyl]carbamimidoyl}-3-(3,4-dichlorophenyl)-4,5-dihydro-1H-pyrazol-4-yl]-N-ethyl-D-prolinamide] | 7.30
CCN(C(=O)[C@H]1CCN1)C1CN(/C(=N\C#N)Nc2cc(F)cc(OC(F)(F)F)c2)N=C1c1ccc(Cl)c(Cl)c1 (mixture of isomers) [Example 23, (2R)-N-[1-{N′-Cyano-N-[3-fluoro-5-(trifluoromethoxy)phenyl]carbamimidoyl}-3-(3,4-dichlorophenyl)-4,5-dihydro-1H-pyrazol-4-yl]-N-ethylazetidine-2-carboxamide] | 7.36
CCN(C(=O)[C@H]1CCCN1)C1CN(/C(=N\C#N)Nc2cc(F)cc(OC(F)(F)F)c2)N=C1c1ccc(Cl)c(Cl)c1 (mixture of isomers) [Example 24, N-[1-{N′-Cyano-N-[3-fluoro-5-(trifluoromethoxy)phenyl]carbamimidoyl}-3-(3,4-dichlorophenyl)-4,5-dihydro-1H-pyrazol-4-yl]-N-ethyl-D-prolinamide] | 7.19
CCN(C(=O)[C@H]1CCCN1)C1CN(/C(=N\C#N)Nc2cc(OC(F)(F)F)ccc2F)N=C1c1ccc(Cl)c(Cl)c1 (mixture of isomers) [Example 26, N-[1-{N′-Cyano-N-[2-fluoro-5-(trifluoromethoxy)phenyl]carbamimidoyl}-3-(3,4-dichlorophenyl)-4,5-dihydro-1H-pyrazol-4-yl]-N-ethyl-D-prolinamide] | 7.21
CCN(C(=O)[C@H]1CCCN1)C1CN(/C(=N\C#N)Nc2cc(C(F)(F)F)ccc2OC)N=C1c1ccc(Cl)c(Cl)c1 (mixture of isomers) [Example 27, N-[1-{N′-Cyano-N-[2-methoxy-5-(trifluoromethyl)phenyl]carbamimidoyl}-3-(3,4-dichlorophenyl)-4,5-dihydro-1H-pyrazol-4-yl]-N-ethyl-D-prolinamide] | 8.34
CCN(C(=O)[C@H]1C[C@@H](O)CN1)C1CN(/C(=N\C#N)Nc2cc(C(F)(F)F)ccc2OC(F)(F)F)N=C1c1ccc(Cl)c(Cl)c1 (mixture of isomers) [Example 29, (4R)-N-[1-{N′-Cyano-N-[2-(trifluoromethoxy)-5-(trifluoromethyl)phenyl]carbamimidoyl}-3-(3,4-dichlorophenyl)-4,5-dihydro-1H-pyrazol-4-yl]-N-ethyl-4-hydroxy-D-prolinamide] | 6.66
CCN(C(=O)[C@H]1CCCN1)C1CN(/C(=N\C#N)Nc2cc(C(F)(F)F)ccc2OC(F)(F)F)N=C1c1ccc(Cl)c(Cl)c1 (mixture of isomers) [Example 30, N-[1-{N′-Cyano-N-[2-(trifluoromethoxy)-5-(trifluoromethyl)phenyl]carbamimidoyl}-3-(3,4-dichlorophenyl)-4,5-dihydro-1H-pyrazol-4-yl]-N-ethyl-D-prolinamide] | 7.02
CCN(C(=O)[C@H]1CCCN1)C1CN(/C(=N\C#N)Nc2cccc(CC(F)(F)F)c2)N=C1c1ccc(Cl)c(Cl)c1 (mixture of isomers) [Example 31, N-[1-{N′-Cyano-N-[3-(2,2,2-trifluorelethyl)phenyl]carbamimidayl}-3-(3,4-dichlorophenyl)-4,5-dihydro-1H-pyrazol-4-yl]-N-ethyl-D-prolinamide] | 7.63
CCN(C(=O)[C@H]1CCCN1)C1CN(/C(=N\C#N)Nc2ccc(F)c(OC)c2)N=C1c1ccc(Cl)c(Cl)c1 (mixture of isomers) [Example 33, N-{1-[N′-Cyano-N-(4-fluoro-3-methoxyphenyl)carbamimidoyl]-3-(3,4-dichlorophenyl)-4,5-dihydro-1H-pyrazol-4-yl}-N-ethyl-D-prolinamide] | 6.99
